From publication PMC4182326, “Synthesis and Characterization of Novel 2-Amino-Chromene-Nitriles that Target Bcl-2 in Acute Myeloid Leukemia Cell Lines” (PLoS ONE, 2014)

Columns and labels:
[1] = molecular target: T1, Bcl-2 (Homo sapiens, UniProt P10415); test: Zymed Bcl-2 ELISA; % inhibition of Bcl-2 binding to its antibody at […]
T1 construct: gene BCL2

[2] = molecular target: T1, Bcl-2; test: Zymed Bcl-2 ELISA; inhibition of Bcl-2 binding to its antibody

T1 sequence (P10415 whole entry): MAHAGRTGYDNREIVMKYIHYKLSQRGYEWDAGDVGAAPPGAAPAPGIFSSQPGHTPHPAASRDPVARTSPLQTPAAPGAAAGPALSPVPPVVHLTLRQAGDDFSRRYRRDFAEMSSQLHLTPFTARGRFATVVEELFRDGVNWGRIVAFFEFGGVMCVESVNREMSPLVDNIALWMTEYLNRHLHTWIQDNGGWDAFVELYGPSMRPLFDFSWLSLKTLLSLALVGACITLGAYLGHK

| inhibition at 30 µM [1] [%] | IC50 [2] [µM] | Structure (SMILES) |
| --- | --- | --- |
| 37.8 | – | N#CC1=C(N)Oc2cc3ccccc3cc2C1c1cccc([N+](=O)[O-])c1 (stereo not shown) [4a, 2-amino-4-(3-nitrophenyl)-4H-benzo[g]chromene-3-carbonitrile] |
| 61.9 | – | N#CC1=C(N)Oc2cc3ccccc3cc2C1c1ccccc1[N+](=O)[O-] (stereo not shown) [4f, 2-amino-4-(2-nitrophenyl)-4H-benzo[g]chromene-3-carbonitrile] |
| – | 17.8 | N#CC1=C(N)Oc2cc3ccccc3cc2C1c1c(Cl)cccc1Cl (stereo not shown) [4g, 2-amino-4-(2,6-dichlorophenyl)-4H-benzo[g]chromene-3-carbonitrile] |
| 53 | – | N#CC1=C(N)Oc2cc3ccccc3cc2C1c1ccc(F)cc1 (stereo not shown) [4h, 2-amino-4-(4-fluorophenyl)-4H-benzo[g]chromene-3-carbonitrile] |
